This is an account of results in PMC7005262, “Complete structure of the chemosensory array core signalling unit in an E. coli minicell strain” (Nature Communications, 2020).

The target of the test is T1, Tsr (Escherichia coli, UniProt P02942).
T1 construct: mixed adaptational modification states, CheR and CheB present; read-out by plasmid-borne CheY-YFP/CheZ-CFP
As to the kind of experiment: in vivo FRET kinase assay (CheY-YFP/CheZ-CFP), inhibition of receptor-coupled CheA activity, multi-site Hill fit. The test is classed as cell-based. The following applies: intact WM4196 minicells, motility buffer pH 7.0, adaptation enzymes CheR and CheB present; attractant at the periplasmic domain; read-out: K1/2.

T1 sequence (P02942 whole entry): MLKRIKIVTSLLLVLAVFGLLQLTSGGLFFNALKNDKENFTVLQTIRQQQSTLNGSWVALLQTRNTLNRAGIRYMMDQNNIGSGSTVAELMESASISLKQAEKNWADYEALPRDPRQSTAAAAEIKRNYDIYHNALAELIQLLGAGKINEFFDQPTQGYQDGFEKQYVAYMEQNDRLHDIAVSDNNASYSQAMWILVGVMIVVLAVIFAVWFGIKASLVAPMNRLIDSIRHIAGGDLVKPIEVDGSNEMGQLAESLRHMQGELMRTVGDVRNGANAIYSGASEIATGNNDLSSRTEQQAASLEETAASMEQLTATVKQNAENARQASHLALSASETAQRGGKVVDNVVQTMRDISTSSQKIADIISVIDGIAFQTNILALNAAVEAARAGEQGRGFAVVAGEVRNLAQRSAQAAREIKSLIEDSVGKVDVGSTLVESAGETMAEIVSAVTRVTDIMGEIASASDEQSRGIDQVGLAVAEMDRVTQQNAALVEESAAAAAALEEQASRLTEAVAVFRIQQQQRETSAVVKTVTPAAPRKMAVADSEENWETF

With `N[C@@H](CO)C(=O)O` [serine], the EC50 was determined as 400 nM.
